The results in this text go back to patent US20040067850A1, “Agricultural and horticultural composition” (priority 2001, published 2004).

The test system of this experiment is Oat. As to the kind of experiment: Gotland field trial, foliage application: manganese deficiency assessment in oat. Format: in vivo. The conditions noted are these: 4 kg/ha, scale 0 = no deficiency, 100 = all plants. How it is done: Oat was grown on a location on Gotland, Sweden, with severe manganese conditions. […] The invention, MicroplanTM Manganese (150 gram manganese complex bound per liter, amino acids used were methionin and lysine, respectively), was applied to the foliage at growing stage DC 25 (early tillering). […] The same amount of manganese was applied. The assessment, shown in the table 7 below, were done one week and two weeks after application. According to the following procedure: Manganese deficiency 0-100, scale 0=no deficiency 100=all plants/leaves showing deficiency (=yellow leaves).

Regarding `O=S(=O)([O-])[O-].[Mn+2]` [Manganese sulphate], the “Manganese deficiency 0-100 (plant/leaf area with symptoms)” value reads like this: (6/7-2001) 28; (16/7-2001) 25.
